Usually melting point stands for the temperature, or range, at which the solid turns liquid.

Data on 13 compounds can be found in patent publication US20010047099A1, “4-aminopicolinates and their use as herbicides” (priority 2000, published 2001).

Series [1] has as its system chickweed (Stellaria media). Description: Postemergence herbicidal activity. Format: in vivo. Conditions: Table 1, visual, after 2 weeks. The protocol: (§1) Seeds of the desired test plant species were planted in Grace-Sierra MetroMix® 306 planting mixture, which typically has a pH of 6.0 to 6.8 and an organic matter content of about 30 percent, in plastic pots with a surface area of 64 square centimeters. When required to ensure good germination and healthy plants, a fungicide treatment and/or other chemical or physical treatment was applied. The plants were grown for 7-21 days in a greenhouse with an approximate 15 hr photoperiod which was maintained at about 23-29° C. during the day and 22-28° C. during the night. Nutrients and water were added on a regular basis and supplemental lighting was provided with overhead metal halide 1000-Watt lamps as necessary. The plants were employed for testing when they reached the first or second true leaf stage.
(§2) A weighed amount, determined by the highest rate to be tested, of each test compound was placed in a 20 mL glass vial and was dissolved in 4 mL of a 97:3 v/v (volume/volume) mixture of acetone and dimethyl sulfoxide (DMSO) to obtain concentrated stock solutions. […] The concentrated stock solutions obtained were diluted with an aqueous mixture containing acetone, water, isopropyl alcohol, DMSO, Atplus 411F crop oil concentrate, and Triton X-155 surfactant in a 48.5:39:10:1.5:1.0:0.02 v/v ratio to obtain spray solutions of known concentration. The solutions containing the highest concentration to be tested were prepared by diluting 2 mL aliquots of the stock solution with 13 mL of the mixture and lower concentrations were prepared by serial dilution of the stock solution. Approximately 1.5 mL aliquots of each solution of known concentration were sprayed evenly onto each of the test plant pots using a DeVilbiss atomizer driven by compressed air pressure of 2 to 4 psi ([…]) to obtain thorough coverage of each plant. Control plants were sprayed in the same manner with the aqueous mixture. In this test an application rate of 1 ppm results in the application of approximately 1 g/Ha.
(§3) The treated plants and control plants were placed in a greenhouse as described above and watered by sub-irrigation to prevent wash-off of the test compounds. After 2 weeks the condition of the test plants as compared with that of the untreated plants was determined visually and scored on a scale of 0 to 100 percent where 0 corresponds to no injury and 100 corresponds to complete kill.

Series [2] concerns wild buckwheat (Polygonum convolvulus). Description: Postemergence herbicidal activity. It counts as in vivo. The settings on record: Table 1, visual, after 2 weeks. How it is done: as §1, §2, §3
The subject of series [3] is cocklebur (Xanthium strumarium). Description: Postemergence herbicidal activity. It counts as in vivo. The settings on record: Table 1, visual, after 2 weeks. The protocol: as §1, §2, §3
In series [4] the test system is pigweed (Amaranthus retroflexus). The series can be described thus: Preemergence herbicidal activity. It counts as in vivo. The settings on record: Table 6 (headed Post-emergent; text: preemergence), after 3 weeks; for pest or weed control at 280 ppm: rate 280 ppm. An excerpt:
(§4) Seeds of the desired test plant species were planted in a soil matrix prepared by mixing a loam soil (43 percent silt, 19 percent clay, and 38 percent sand, with a pH of about 8.1 and an organic matter content of bout 1.5 percent) and sand in a 70 to 30 ratio. The soil matrix was contained in plastic pots with a surface area of 113 square centimeters. When required to ensure good germination and healthy plants. a fungicide treatment and/or other chemical or physical treatment was applied.
(§5) A weighed amount, determined by the highest rate to be tested, of each test compound was placed in a 20 mL glass vial and was dissolved in 4 mL of a 97:3 v/v (volume/volume) mixture of acetone and dimethyl sulfoxide to obtain concentrated stock solutions. […] The stock solutions obtained were diluted with a 99.9:0.1 mixture of water and Tween® […] surfactant to obtain application solutions of known concentration. The solutions containing the highest concentration to be tested were prepared by diluting 2 mL aliquots of the stock solution with 15 mL of the mixture and lower concentrations were prepared by serial dilution of the stock solution. A 2.5 mL aliquot of each solution of known concentration was sprayed evenly onto the soil surface (113 sq. cm) of each seeded pot using a Cornwall 5.0 mL glass syringe fitted with a TeeJet TN-3 hollow cone nozzle to obtain thorough coverage of the soil in each pot. Control pots were sprayed in the same manner with the aqueous mixture.
(§6) The treated pots and control pots were placed in a greenhouse maintained with an approximate 15 hr photoperiod and temperatures of about 23-29° C. during the day and 22-28° C. during the night. Nutrients and water were added on a regular basis and supplemental lighting was provided with overhead metal halide 1000-Watt lamps as necessary. The water was added by top-irrigation. After 3 weeks the condition of the test plants that germinated and grew as compared with that of the untreated plants that germinated and grew was determined visually and scored on a scale of 0 to 100 percent where 0 corresponds to no injury and 100 corresponds to complete kill or no germination.

The test system of series [5] is velvetleaf (Abutilon theophrasti). The series can be described thus: Preemergence herbicidal activity. Format: in vivo. The settings on record: Table 6 (headed Post-emergent; text: preemergence), after 3 weeks; for pest or weed control at 280 ppm: rate 280 ppm.
From the text: as §4, §5, §6

Series [6] concerns morningglory (Ipomoea hederacea). The series can be described thus: Preemergence herbicidal activity. Format: in vivo. The settings on record: Table 6 (headed Post-emergent; text: preemergence), after 3 weeks; for pest or weed control at 280 ppm: rate 280 ppm.
From the text: as §4, §5, §6

Setting [7] is: Stellaria media, post-emergence, 336 h, rate 250 ppm, read-out: Post-emergent % Control STEME.
Where [8] appears, read: Fallopia convolvulus, post-emergence, 336 h, rate 250 ppm, read-out: Post-emergent % Control POLCO.
[9] abbreviates: Xanthium strumarium, post-emergence, 336 h, rate 250 ppm, read-out: Post-emergent % Control XANST.
Where [10] appears, read: Amaranthus retroflexus, 504 h, read-out: % Control AMARE.
The mark [11] stands for this setting: Abutilon theophrasti, 504 h, read-out: % Control ABUTH.
[12] abbreviates: Ipomoea, 504 h, read-out: % Control IPOHE.
Where [13] appears, read: Amaranthus retroflexus, 504 h, rate 560 ppm, read-out: % Control AMARE.
Where [14] appears, read: Abutilon theophrasti, 504 h, rate 560 ppm, read-out: % Control ABUTH.
Where [15] appears, read: Ipomoea, 504 h, rate 560 ppm, read-out: % Control IPOHE.

As to `CCCCOCCOC(=O)c1nc(Cl)cc(N)c1Cl` (hydrate or solvate) [Compound 10, butoxyethyl 4-amino-3,6-dichloropyridine-2-carboxylate], the melting point lay in the range of 64 to 67 °C.

In turn, `CCCCC(CC)COC(=O)c1nc(Cl)cc(N)c1Cl` (stereo not shown) [Compound 2, 2-Ethylhexyl 4-amino-3,6-dichloropyridine-2-carboxylate] registered a melting point of 55 °C. The pest or weed control at 250 ppm in series [1] (setting [7]) stood at 80%. The pest or weed control at 250 ppm in series [2] (setting [8]) came to 100%. In series [3] (setting [9]), the pest or weed control at 250 ppm is 95%. Moreover, the pest or weed control at 280 ppm in series [4] (setting [10]) was 100%. Besides, the pest or weed control at 280 ppm in series [5] (setting [11]) came to 100%. Moreover, the pest or weed control at 280 ppm in series [6] (setting [12]) was 100%.

`CCCCCOC(=O)c1nc(Cl)cc(N)c1Cl` [Compound 8, n-pentyl 4-amino-3,6-dichloropyridine-2-carboxylate] gave a melting point of 71 to 73 °C. Further, the pest or weed control at 250 ppm in series [1] (setting [7]) was 90%. Moreover, the pest or weed control at 250 ppm in series [2] (setting [8]) amounted to 100%. In addition, in series [3] (setting [9]), the pest or weed control at 250 ppm stood at 100%. In addition, the pest or weed control at 280 ppm in series [4] (setting [10]) is 100%. In addition, the pest or weed control at 280 ppm in series [5] (setting [11]) is 100%. In addition, the pest or weed control at 280 ppm in series [6] (setting [12]) came to 100%.

Take `NC(=O)c1nc(Cl)cc(N)c1Cl` [Compound 11, 4-Amino-3,6-dichloropyridine-2-carboxamide]: the melting point fell in the range of 240 to 241 °C. For the same compound, the pest or weed control at 125 ppm in series [1] (Stellaria media, post-emergence, 336 h, rate 125 ppm, read-out: Post-emergent % Control STEME) came to 85%. Also, the pest or weed control at 125 ppm in series [2] (Fallopia convolvulus, post-emergence, 336 h, rate 125 ppm, read-out: Post-emergent % Control POLCO) was 95%. In addition, in series [3] (Xanthium strumarium, post-emergence, 336 h, rate 125 ppm, read-out: Post-emergent % Control XANST), the pest or weed control at 125 ppm came out at 80%. Besides, the pest or weed control at 560 ppm in series [4] (setting [13]) is 0%. The pest or weed control at 560 ppm in series [5] (setting [14]) was 85%. Moreover, the pest or weed control at 560 ppm in series [6] (setting [15]) amounted to 85%.

In the case of `Nc1cc(Br)nc(C(=O)O)c1Br` [Compound 17, 4-Amino-3,6-dibromopyridine-2-carboxylic acid], the melting point was 205 °C (dec.). For the same compound, in series [1] (setting [7]), the pest or weed control at 250 ppm turned out to be 80%. In addition, the pest or weed control at 250 ppm in series [2] (setting [8]) is 100%. In series [3] (setting [9]), the pest or weed control at 250 ppm was found to be 100%. Also, in series [4] (setting [13]), the pest or weed control at 560 ppm is 100%. Moreover, the pest or weed control at 560 ppm in series [5] (setting [14]) is 100%. In addition, the pest or weed control at 560 ppm in series [6] (setting [15]) was determined as 100%.

The compound `Nc1c(Cl)c(C(=O)O)nc(Cl)c1C(F)(F)F` [Compound 21, 4-Amino-3,6-dichloro-5-trifluoromethylpyridine-2-carboxylic acid] yielded a melting point of 173 °C. Besides, in series [1] (setting [7]), the pest or weed control at 250 ppm was determined as 20%. Besides, the pest or weed control at 250 ppm in series [2] (setting [8]) turned out to be 20%. Besides, the pest or weed control at 250 ppm in series [3] (setting [9]) is 70%. In series [4] (setting [13]), the pest or weed control at 560 ppm came to 80%. In addition, the pest or weed control at 560 ppm in series [5] (setting [14]) was found to be 80%. Also, in series [6] (setting [15]), the pest or weed control at 560 ppm stood at 90%.

The compound `COc1c(Cl)nc(C(=O)O)c(Cl)c1N` [Compound 22, 4-Amino-3,6-dichloro-5-methoxypyridine-2-carboxylic acid] returned a melting point of 154 to 156 °C. Also, in series [1] (setting [7]), the pest or weed control at 250 ppm is 90%. The pest or weed control at 250 ppm in series [2] (setting [8]) stood at 100%. Besides, the pest or weed control at 250 ppm in series [3] (setting [9]) amounted to 80%. The pest or weed control at 560 ppm in series [4] (setting [13]) is 100%. The pest or weed control at 560 ppm in series [5] (setting [14]) was 100%. Further, the pest or weed control at 560 ppm in series [6] (setting [15]) amounted to 100%.

`COC(=O)c1nc(Cl)c([N+](=O)[O-])c(N)c1Cl` [Compound 25, Methyl 4-amino-3,6-dichloro-5-nitropyridine-2-carboxylate] returned a melting point of 127 to 128 °C. Besides, the pest or weed control at 250 ppm in series [1] (setting [7]) stood at 50%. Further, in series [2] (setting [8]), the pest or weed control at 250 ppm is 50%. Also, in series [3] (setting [9]), the pest or weed control at 250 ppm came to 60%.

Compound `CCCCNc1cc(Cl)nc(C(=O)O)c1Cl` [Compound 29, 4-N-butylamino-3,6-dichloropyridine-2-carboxylic acid] yielded a melting point of 96 to 97 °C. The pest or weed control at 250 ppm in series [1] (setting [7]) is 90%. The pest or weed control at 250 ppm in series [2] (setting [8]) was 90%. Moreover, in series [3] (setting [9]), the pest or weed control at 250 ppm is 95%. For the same compound, the pest or weed control at 560 ppm in series [4] (setting [13]) is 100%. In series [5] (setting [14]), the pest or weed control at 560 ppm was 100%. The pest or weed control at 560 ppm in series [6] (setting [15]) was found to be 100%.

The compound `Cc1c(Br)nc(C(=O)O)c(Cl)c1N=[N+]=[N-]` [Compound 38, Methyl 4-azido-6-bromo-3-chloropyridine-2-carboxylic acid] yielded a melting point of 84 to 86 °C.

Regarding `Nc1cc(Oc2ccc(Cl)c(Cl)c2)nc(C(=O)O)c1Cl` [Compound 51, 4-amino-3-chloro-6-(3,4-dichlorophenoxy)-pyridine-2-carboxylic acid], the pest or weed control at 250 ppm in series [1] (setting [7]) was determined as 70%; in series [2] (setting [8]) it was 100%; in series [3] (setting [9]) it was 100%. Also, the pest or weed control at 280 ppm in series [4] (setting [10]) was 98%; in series [5] (setting [11]), 80%; in series [6] (setting [12]), 0%.

Regarding `Nc1c(F)c(Oc2ccc(Cl)c(Cl)c2)nc(C(=O)O)c1Cl` [Compound 55, 4-Amino-3-chloro-5-fluoro-6-(3,4-dichlorophenoxy)pyridine-2-carboxylic acid], the pest or weed control at 250 ppm in series [1] (setting [7]) was found to be 95%; in series [2] (setting [8]) it was 100%; in series [3] (setting [9]), 100%; in series [4] (Amaranthus retroflexus, 504 h, rate 250 ppm, read-out: % Control AMARE) it was 95%; in series [5] (Abutilon theophrasti, 504 h, rate 250 ppm, read-out: % Control ABUTH) it was 100%; in series [6] (Ipomoea, 504 h, rate 250 ppm, read-out: % Control IPOHE), 100%.

As for “N,N-diacetyl 4-amino-3,6-dichloropyridine-2-carboxylate [Compound 13]”, the “Post-emergent % Control STEME” value in series [1] (rate 250 ppm) was 100%. The “Post-emergent % Control POLCO” value in series [2] (rate 250 ppm) is reported as 80%. Also, the “Post-emergent % Control XANST” value in series [3] (rate 250 ppm) is listed as 95%. Also, in series [4] (rate 560 ppm), the “% Control AMARE” value worked out at 100%. For the same compound, the “% Control ABUTH” value in series [5] (rate 560 ppm) came out at 95%. Also, the “% Control IPOHE” value in series [6] (rate 560 ppm) is on record as 95%.
